Assay results published in the Deep4Chem optical property database.
Blank lines part the entries; values can stand above or below the molecule they belong to.

Test: solvent given as SMILES

SMILES: c1cc2c(N3CCCCC3)c3ccc(=[N+]4CCCCC4)cc-3oc2cc1N1CCCCC1
- absorption maximum (in ClCCl): 491 nm

SMILES: O=C(c1ccc(N2c3ccccc3Sc3ccccc32)cc1)c1ccc2sc3ccccc3c2c1
- absorption maximum (in C1CCOC1): 330 nm

SMILES: O=[N+]([O-])c1ccc(NCCNCc2c3ccccc3cc3ccccc23)c([N+](=O)[O-])c1
- absorption maximum (in C1CCCCC1): 368 nm
- absorption maximum (in C1CCOC1): 349 nm
- absorption maximum (in CC#N): 364 nm
- absorption maximum (in CC(C)=O): 364 nm
- absorption maximum (in CCO): 364 nm
- absorption maximum (in CN(C)C=O): 363 nm
- absorption maximum (in CO): 348 nm
- absorption maximum (in ClC(Cl)Cl): 350 nm

SMILES: CCN(CC)c1ccc(-c2ccc(-c3nc(N4CCOCC4)c4ccccc4n3)s2)cc1
- absorption maximum (in CC#N): 401 nm
- absorption maximum (in Cc1ccccc1): 405 nm

SMILES: N#Cc1cc(-c2ccc(N3c4ccccc4Oc4ccccc43)cc2)c(-c2ccc(N3c4ccccc4Oc4ccccc43)cc2)cc1C#N
- absorption maximum (in Cc1ccccc1): 406 nm

SMILES: CC(C)[Si](C#Cc1c2nc3ccccc3nc2c(C#C[Si](C(C)C)(C(C)C)C(C)C)c2nc3ccccc3nc12)(C(C)C)C(C)C
- absorption maximum (in CCCCCC): 681 nm

SMILES: CCC1=C(C)C2=C(C)c3cc(I)cn3[B-](F)(F)[N+]2=C1C
- absorption maximum (in C1CCCCC1): 517.5 nm
- absorption maximum (in CC(C)=O): 502.5 nm
- absorption maximum (in CCO): 506 nm
- absorption maximum (in CCOC(C)=O): 504.5 nm
- absorption maximum (in CO): 503.5 nm
- absorption maximum (in OCC(F)(F)F): 499.5 nm

SMILES: CC1=N/C(=C\c2cc(N(C)C)ccc2C#N)C(=O)N1C
- absorption maximum (in C1CCOC1): 363 nm
- absorption maximum (in CC#N): 361 nm
- absorption maximum (in CCCCCC): 359 nm

SMILES: CC(C)(C)c1cc(-c2ccc(-c3cccs3)s2)c2c(c1)c1cc(C(C)(C)C)cc(-c3ccc(-c4cccs4)s3)c1n2-c1ccc(-c2cccs2)s1
- absorption maximum (in ClCCl): 340 nm

SMILES: c1cc2oc3cccc4oc5cccc6oc(c1)c2[c+](c34)c65
- absorption maximum (in CC#N): 481 nm

SMILES: Fc1ccc2cc3cccc[n+]3cc2c1
- absorption maximum (in O): 400 nm

SMILES: c1cc2ccc1-c1ccc(cc1)-c1ccc(s1)-c1ccc(cc1)-c1ccc(cc1)-c1ccc(s1)-c1ccc(cc1)-c1ccc(cc1)-c1ccc-2s1
- absorption maximum (in C1CCOC1): 346 nm

SMILES: CCCCCCCCc1ccc(-c2c3cc(-c4cc(CCCCCCCC)c(-c5ccc(-c6sc(/C=C7\SC(=S)N(CC)C7=O)cc6CCCCCCCC)s5)s4)sc3c(-c3ccc(CCCCCCCC)s3)c3cc(-c4cc(CCCCCCCC)c(-c5ccc(-c6sc(/C=C7\SC(=S)N(CC)C7=O)cc6CCCCCCCC)s5)s4)sc23)s1
- absorption maximum (in ClC(Cl)Cl): 509 nm

SMILES: CCn1c2cc(C(C)(C)C)ccc2c2c3nsnc3c3c4ccc(C(C)(C)C)cc4n(CC)c3c21
- absorption maximum (in CN(C)C=O): 430 nm
- absorption maximum (in Cc1ccccc1): 425 nm
- absorption maximum (in ClCCl): 430 nm

SMILES: COc1cccc(C2=c3c(c4ccc(C(C)(C)C)cc4c4cc(C(C)(C)C)ccc34)=[N+]3C2=C(c2ccccc2)c2c(-c4cccc(OC)c4)c4c5ccc(C(C)(C)C)cc5c5cc(C(C)(C)C)ccc5c4n2[B-]3(F)F)c1
- absorption maximum (in C1CCCCC1): 680 nm
- absorption maximum (in C1CCOC1): 677 nm
- absorption maximum (in CC#N): 670 nm
- absorption maximum (in Cc1ccccc1): 682 nm
- absorption maximum (in ClCCl): 677 nm

SMILES: CC1(C)C(/C=C/C2=C(Oc3ccc(CCN=C=S)cc3I)C(=C/C=C3/N(CCCS(=O)(=O)[O-])c4ccccc4C3(C)C)/CCC2)=[N+](CCCS(=O)(=O)[O-])c2ccccc21
- absorption maximum (in CO): 766 nm

SMILES: C[Si]1(C)c2ccc(-c3ccc(-c4cccs4)s3)cc2C=Cc2cc(-c3ccc(-c4cccs4)s3)ccc21
- absorption maximum (in ClCCl): 398 nm

SMILES: C(=C\c1nc2ccccc2[nH]1)/c1ccc(/C=C/c2nc3ccccc3[nH]2)cc1
- absorption maximum (in C1CCOC1): 389 nm
- absorption maximum (in CC#N): 382 nm
- absorption maximum (in CC(C)=O): 395 nm
- absorption maximum (in CN(C)C=O): 390 nm
- absorption maximum (in CO): 384 nm
- absorption maximum (in CS(C)=O): 392 nm

SMILES: Cc1ccc2c(c1)nnn2-c1c(C#N)c2c(N)ncnc2n1[C@H]1C[C@H](O)[C@@H](CO)O1
- absorption maximum (in CO): 278 nm

SMILES: Cc1cc(/N=C/c2cc(S(=O)(=O)[O][Na])ccc2O)c(/N=C/c2cc(S(=O)(=O)[O][Na])ccc2O)cc1C
- absorption maximum (in O): 371 nm

SMILES: C(=C(c1ccccc1)c1ccccc1)c1ccc(-c2ccc(-c3nc4c5ccccc5c5ccccc5c4n3-c3cccc(-c4ccc(C=C(c5ccccc5)c5ccccc5)cc4)c3)cc2)cc1
- absorption maximum (in C1CCOC1): 340 nm

SMILES: CC(C)(C)c1ccc2c(c1)c1cc(C(C)(C)C)ccc1n2-c1cccc(-c2nc(-c3cccc(P(=O)(c4ccccc4)c4ccccc4)c3)nc(-c3cccc(P(=O)(c4ccccc4)c4ccccc4)c3)n2)c1
- absorption maximum (in C1CCOC1): 343 nm
- absorption maximum (in CC#N): 343 nm
- absorption maximum (in CC(C)=O): 343 nm
- absorption maximum (in CN(C)C=O): 343 nm
- absorption maximum (in Cc1ccccc1): 343 nm
- absorption maximum (in ClC(Cl)Cl): 343 nm
- absorption maximum (in ClCCl): 343 nm

SMILES: O=c1cc2c(-c3c(O)c4cccc5ccc6oc(=O)cc3c6c54)c(O)c3cccc4ccc(o1)c2c43
- absorption maximum (in CC1CCCO1): 486 nm

SMILES: c1ccc(-c2nnc(-c3cc(-c4nnc(-c5ccccc5)o4)c(-n4c5ccccc5c5ccccc54)cc3-n3c4ccccc4c4ccccc43)o2)cc1
- absorption maximum (in Cc1ccccc1): 370 nm

SMILES: c1ccc(-c2nc(-c3ccccc3)nc(-c3ccc(-n4c5ccc(-c6ccc7sc8ccccc8c7c6)cc5c5cc(-c6ccc7sc8ccccc8c7c6)ccc54)cc3)n2)cc1
- absorption maximum (in Cc1ccccc1): 377 nm

SMILES: c1ccc(-c2nc(-c3ccc(-c4nc(-c5ccccc5)c(-c5ccccc5)o4)cc3)oc2-c2ccccc2)cc1
- absorption maximum (in C1COCCO1): 358 nm

SMILES: CCCCCCc1ccc2c3c(ccc2c1)O[B-](F)(F)[N+](c1cc([N+]2=Cc4c(ccc5cc(CCCCCC)ccc45)O[B-]2(F)F)cc([N+]2=Cc4c(ccc5cc(CCCCCC)ccc45)O[B-]2(F)F)c1)=C3
- absorption maximum (in C1CCOC1): 418 nm
- absorption maximum (in CC#N): 419 nm
- absorption maximum (in Cc1ccccc1): 433 nm
- absorption maximum (in ClCCl): 428 nm

SMILES: Cc1cc2nc3[nH]c(=O)[nH]c(=O)c3nc2cc1C
- absorption maximum (in CC#N): 380 nm

SMILES: CC(C)c1cccc(C(C)C)c1-n1c(=O)c2cc3nc(-c4ccccc4)c4cc5c(=O)n(-c6c(C(C)C)cccc6C(C)C)c(=O)c6cc7nc(-c8ccccc8)c8cc(c1=O)c2c1c3c4c(c65)c7c81
- absorption maximum (in ClC(Cl)Cl): 488 nm

SMILES: CCn1c2ccccc2c2cc(-c3cc(-c4ccc5c(c4)c4ccccc4n5CC)nc(-c4ccc(OC)cc4)n3)ccc21
- absorption maximum (in C1CCOC1): 365 nm
- absorption maximum (in CCOC(C)=O): 362 nm
- absorption maximum (in CN(C)C=O): 369 nm
- absorption maximum (in Cc1ccccc1): 363 nm
- absorption maximum (in ClCCl): 364 nm

SMILES: N#Cc1ccc(-n2c3ccccc3c3c2c2ccccc2n3-c2ccccc2)cc1
- absorption maximum (in Cc1ccccc1): 359 nm

SMILES: C1=C(c2ccc(-c3cccs3)s2)CCCC1
- absorption maximum (in C1CCOC1): 341 nm
- absorption maximum (in CC#N): 342 nm
- absorption maximum (in CCCCCC): 341 nm
- absorption maximum (in CCO): 344 nm
- absorption maximum (in OCCOCCO): 345 nm
- absorption maximum (in c1ccncc1): 345 nm

SMILES: Cc1ccc(O)c(-c2nc(C)c3n2CCCC3)c1
- absorption maximum (in ClCCl): 321 nm

SMILES: Cc1cc(=O)[nH]c(=O)[nH]1
- absorption maximum (in CC#N): 256 nm

SMILES: O=c1c2ccccc2n(-c2ccc(-c3ccc(N(c4ccccc4)c4ccccc4)cc3)cc2)c2ccccc12
- absorption maximum (in ClCCl): 394 nm

SMILES: CC(C)(C)c1cc(-c2c3cc(c(-c4cc(C(C)(C)C)cc(C(C)(C)C)c4)c4ccc([nH]4)c(-c4ccc(Br)cc4)c4nc(c(-c5ccc(Br)cc5)c5ccc2[nH]5)C=C4)N=C3)cc(C(C)(C)C)c1
- absorption maximum (in ClCCl): 726 nm

SMILES: Fc1nc(F)c(F)c(C#Cc2ccccc2C#Cc2c(F)c(F)nc(F)c2F)c1F
- absorption maximum (in CC#N): 300 nm

SMILES: CCCCCCC(CCCCCC)N1C(=O)c2cccc3c(-c4ccc(N(C)C)cc4)ccc(c23)C1=O
- absorption maximum (in CCCCCC): 401.2 nm
- absorption maximum (in CCCCCCCCCCCCCC): 403.8 nm
- absorption maximum (in CCCCCCCCCCCO): 428.6 nm
- absorption maximum (in CCCCO): 430.2 nm
- absorption maximum (in CN(C)C=O): 433.8 nm
- absorption maximum (in Cc1ccccc1): 418.2 nm
- absorption maximum (in ClC(Cl)Cl): 426.2 nm

Other lines, results leading:

- absorption maximum (in CC#N): 643 nm
- absorption maximum (in ClC(Cl)Cl): 650 nm
SMILES: F[B-]1(F)n2c(-c3ccccc3)cc(-c3ccccc3)c2N=C2C(c3ccccc3)=CC(c3ccccc3)=[N+]21

- absorption maximum (in C1CCOC1): 350 nm
- absorption maximum (in C1COCCO1): 354 nm
- absorption maximum (in CC#N): 352 nm
- absorption maximum (in CCCO): 360 nm
- absorption maximum (in CCO): 359 nm
- absorption maximum (in CN(C)C=O): 362 nm
- absorption maximum (in CO): 357 nm
- absorption maximum (in CS(C)=O): 365 nm
- absorption maximum (in ClC(Cl)Cl): 355 nm
- absorption maximum (in ClCCl): 353 nm
SMILES: COc1ccc(/C=C/C(=O)c2ccccc2O)cc1OC

- absorption maximum (in CC#N): 419 nm
SMILES: COC(=O)/C=C/c1sc(-c2ccc(N(C)C)cc2)cc1N

- absorption maximum (in ClCCl): 283 nm
SMILES: COc1ccc(-c2ncccn2)cc1

- absorption maximum (in CC#N): 432 nm
- absorption maximum (in ClCCl): 436 nm
SMILES: COC(=O)c1cc(=O)n(Cc2ccccc2)c2cc(-c3ccc(N(C)C)cc3)sc12

- absorption maximum (in C1COCCO1): 428 nm
SMILES: COc1ccc(C2=C/C(=C\c3ccc(C#N)cc3)C(=O)O2)cc1OC

- absorption maximum (in ClCCl): 322 nm
SMILES: CCOC(=O)c1c(-c2c(Cl)c3ccccc3oc2=O)nn(-c2ccc(Br)cc2)c1C(=O)OCC

- absorption maximum (in C1CCOC1): 390 nm
SMILES: N#Cc1c(N2CCCCC2)cc(-c2cccc3ccccc23)c2c1-c1ccccc1C2=O

- absorption maximum (in C1CCCCC1): 399.4 nm
SMILES: CCc1c(C(=O)OC)c(C(=O)OC)c2ccc(-c3ccccc3)nn12

- absorption maximum (in C1CCCCC1): 410 nm
- absorption maximum (in C1COCCO1): 425 nm
- absorption maximum (in CC#N): 430 nm
- absorption maximum (in CN(C)C=O): 435 nm
- absorption maximum (in ClC(Cl)Cl): 425 nm
SMILES: N#Cc1c2nc3ccccn3c2nc2c1nc1ccccn12

- absorption maximum (in CCO): 439 nm
SMILES: CC(C)(C)OC(=O)NCC(=O)OCc1ccc2c3cccc4cccc(c5cccc1c52)c43

- absorption maximum (in C1CCCCC1): 389 nm
SMILES: COc1ccc2c3c(c4ccc(OC)cc4c2c1)C(C)(C)c1cc(-c2ccccc2)ccc1-3

- absorption maximum (in ClCCl): 577 nm
SMILES: COC(=O)/C=C/C1=CC2=C(c3c(C)cc(C)cc3C)c3cc(/C=C/C(=O)OC)cn3[B-](F)(F)[N+]2=C1

- absorption maximum (in C1CCOC1): 290 nm
SMILES: C1=C(c2ccccc2)C(c2ccccc2)=CC1c1ccccc1

- absorption maximum (in CO): 397 nm
SMILES: c1ccc(N(c2ccccc2)c2ccc(-c3ncc(-c4ccncc4)s3)cc2)cc1

- absorption maximum (in C1CCCCC1): 325 nm
- absorption maximum (in CO): 330 nm
SMILES: Cc1ccc(/C=C(\c2ccccc2)c2nc3ccccc3o2)cc1

- absorption maximum (in ClCCl): 385 nm
SMILES: C(=C\c1ncc2ccccc2n1)/c1ccc(N2CCCCC2)cc1
